Test results published in article PMC7519074, “Polar functional group-containing glycolipid CD1d ligands modulate cytokine-biasing responses and prevent experimental colitis” (Scientific Reports, 2020).
Converted amounts (≈) assume the structure as drawn.

Key:
mCD1d-Fc fusion protein [1] = biological target: T1, mCD1d-Fc fusion protein (Mus musculus, UniProt P11609); assay: Antigen presenting cell (APC)-free assay for lipid binding to mCD1d-Fc; IL-2 release by 2E10 NKT hybridoma cells; format: cell-based; design: unit not given here; conditions: mean ± SEM; for IL-2 production (exact values of IL-2): ligand 10 nM, Fig. 3a, b; for IL-2 production: ligand 100 nM, Fig. 3c, d
T1 construct: Ig (mouse immunoglobulin fusion partner); purchased BD Biosciences
T1 sequence (P11609 22-305 limits assumed): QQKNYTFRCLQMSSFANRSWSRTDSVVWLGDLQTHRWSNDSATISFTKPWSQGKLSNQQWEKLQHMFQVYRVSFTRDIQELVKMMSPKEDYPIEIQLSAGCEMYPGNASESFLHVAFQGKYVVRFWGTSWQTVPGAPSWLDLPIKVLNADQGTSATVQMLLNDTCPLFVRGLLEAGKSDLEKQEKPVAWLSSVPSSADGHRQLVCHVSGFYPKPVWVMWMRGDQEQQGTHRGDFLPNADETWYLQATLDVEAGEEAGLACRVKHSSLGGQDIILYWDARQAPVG
T1 sequence (P01887 21-119 partner): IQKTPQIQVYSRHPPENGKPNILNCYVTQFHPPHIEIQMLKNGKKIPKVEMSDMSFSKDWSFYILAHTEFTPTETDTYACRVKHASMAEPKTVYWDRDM
Experimental: NKT hybridoma 2E10 cells were cultured in RPMI-1640 (NACALAI TESQUE, INC) supplemented with 10% fetal bovine serum (FBS; Biowest), and 1% penicillin–streptomycin (Gibco).
For this assay, 96-well microplates (Bio-one 96-well cell culture plate, Greiner) were coated with mouse CD1d:Ig Fusion protein (BD Biosciences) (0.25 μg/well) in PBS at 37 °C for 24 h. […] After washing, 2E10 NKT hybridoma cells (2.5 × 10^5 cells/well) were added and cultured at 37 °C for 48 h. IL-2 release was measured with an ELISA kit (Affymetrix).

mouse splenocytes = assay: Cytokine secretion assay using mouse splenocyte; format: cell-based, C57BL/6 mice; design: IFN-γ production / IL-4 production / IL-17A production: unit not given here; conditions: for Relative ratio IL-4/IFN-γ of cytokine production compared to α-GalCer / Relative ratio IL-17A/IFN-γ of cytokine production compared to α-GalCer: 1 nM; for Relative ratio IL-4/IFN-γ of cytokine production compared to α-GalCer: Fig. 5a; for Relative ratio IL-17A/IFN-γ of cytokine production compared to α-GalCer: Fig. 5b; for IL-4 production / IL-17A production / IFN-γ production: 48 h; for cytokine polarization in words: from relative ratios, Fig. 5
Experimental: Spleen cell suspensions (from C57BL/6 mice) were prepared in complete medium (RPMI 1,640 media supplemented with 10% FBS and 1% penicillin–streptomycin) and seeded into 96-well plates (6.0 × 10^5 cells/well). Lipid ligands were added, and the mixture were incubated at 37 °C for 48 h. IFN-γ, IL-4 and IL-17A release were measured with an ELISA kit (Affymetrix).

[2] = Metabolic stability, rat liver microsome; format: in vitro ADME; conditions: for half-life: liver microsomes, read-out: metabolic stability (liver microsome, T1/2) rat
Water solubility = format: physicochemical
[3] = Metabolic stability, human liver microsome; format: in vitro ADME; conditions: for half-life: liver microsomes, read-out: metabolic stability (liver microsome, T1/2) human
mCD1d-Fc fusion protein [4] = biological target: T1, mCD1d-Fc fusion protein; design: method as in PMID 27648599; conditions: previously reported; cited from earlier work
[5] = Table S1, dash = below the detection limit (< 5 μM) according to b25

In the case of CCCCCCCCCCCCCC[C@@H](O)[C@@H](O)[C@H](CO[C@H]1O[C@H](CO)[C@H](O)[C@H](O)[C@H]1O)NC(=O)CCCCCCCCCCCCC(=O)CCCCCC [7b], the “IL-2 production (exact values of IL-2)” value (mCD1d-Fc fusion protein [1]) is reported as 600 ± 20, the “Relative ratio IL-4/IFN-γ of cytokine production compared to α-GalCer” value (shortened to “Relative ratio IL-4/IFN-γ”) (mouse splenocytes) is reported as 12.7 ± 4.0 and the “Relative ratio IL-17A/IFN-γ of cytokine production compared to α-GalCer” value (from here on “Relative ratio IL-17A/IFN-γ”) (mouse splenocytes) is reported as 48.6 ± 15.6. The IL-4 production (mouse splenocytes; 10 nM ligand, Fig. 4e) was 448 ± 40, the IL-17A production (mouse splenocytes; 10 nM ligand, Fig. 4f) was 656 ± 69 and the IFN-γ production (mouse splenocytes; 10 nM ligand, Fig. 4d) was 4,276 ± 261. For the same molecule, the “cytokine polarization in words” value (mouse splenocytes) was “IL-4- and IL-17A-biasing properties”.
CCCCCC/C=C\CCCCCCCCCCCC(=O)N[C@@H](CO[C@H]1O[C@H](CO)[C@H](O)[C@H](O)[C@H]1O)[C@H](O)[C@H](O)CCCCCCCCCCCCCC [9b] gave an IL-2 production (mCD1d-Fc fusion protein [1]) of 925 ± 57.
Work on CCCCCCCCCCCC/C=C\CCCCCCCCCCCC(=O)N[C@@H](CO[C@H]1O[C@H](CO)[C@H](O)[C@H](O)[C@H]1O)[C@H](O)[C@H](O)CCCCCCCCCCCCCC [9a] yielded an IL-2 production (mCD1d-Fc fusion protein [1]) of 1556 ± 91.
In the case of CCCCCCCCCCCCCC[C@@H](O)[C@@H](O)[C@H](CO[C@H]1O[C@H](CO)[C@H](O)[C@H](O)[C@H]1O)NC(=O)CCCCCCCCCCCN(C)C(=O)CCCCCCCCCCCC [4a], the “IL-2 production (exact values of IL-2)” value (mCD1d-Fc fusion protein [1]) is reported as 749 ± 92, the “metabolic stability in words” value [2] is reported as “metabolized more rapidly” and the half-life [2] is reported as 23 min. For the same molecule, the solubility (Water solubility; [5]) was less than 5 µM, the IFN-γ production (mouse splenocytes; 1 nM ligand, Fig. 4a) was 39,159 ± 4,960 and the IL-4 production (mouse splenocytes; 1 nM ligand, Fig. 4b) was 599 ± 13. The “metabolic stability in words” value [3] was “metabolized more rapidly” and the half-life [3] was 15 min.
For CCCCCCCCCCCCCCCCCCCC(=O)N[C@@H](CO[C@H]1O[C@H](CO)[C@H](O)[C@H](O)[C@H]1O)[C@H](O)[C@H](O)CCCCCCCCCCCCCC [C20:0-α-GalCer, reference compound], the IL-4 production (mouse splenocytes; 10 nM ligand, Fig. 4e) was 85 ± 52, the IL-17A production (mouse splenocytes; 10 nM ligand, Fig. 4f) was 696 ± 38 and the IFN-γ production (mouse splenocytes; 10 nM ligand, Fig. 4d) was 1,353 ± 731.
Molecule CCCCCCCCCCCC/C=C/CCCCCCCCCCCC(=O)N[C@@H](CO[C@H]1O[C@H](CO)[C@H](O)[C@H](O)[C@H]1O)[C@H](O)[C@H](O)CCCCCCCCCCCCCC [8a] has an IL-2 production (mCD1d-Fc fusion protein [1]) of 1626 ± 371.
With CCCCCCCCCCCCCC[C@@H](O)[C@@H](O)[C@H](CO[C@H]1O[C@H](CO)[C@H](O)[C@H](O)[C@H]1O)NC(=O)CCCCCCCCCCCCC(=O)CCCCCCCCCCCC [7a] the “IL-2 production (exact values of IL-2)” value (mCD1d-Fc fusion protein [1]) was 424 ± 32.
With CCCCCCCCCCCCCC[C@@H](O)[C@@H](O)[C@H](CO[C@H]1O[C@H](CO)[C@H](O)[C@H](O)[C@H]1O)NC(=O)CCCCCCCCCCCNC(=O)CCCCCCCCCCCC [1a] the “IL-2 production (exact values of IL-2)” value (mCD1d-Fc fusion protein [1]) was 177 ± 27, the IL-2 production (mCD1d-Fc fusion protein [1]) was 2,502 ± 114 and the “metabolic stability in words” value [2] was “good metabolic stability”. The half-life [2] was 47 min, the “cytokine production / agonistic activity relative to α-GalCer, in words” value (mCD1d-Fc fusion protein [4]) was “higher levels of cytokine production relative to that caused by α-GalCer” and the solubility (Water solubility; [5]) was less than 5 µM. The IFN-γ production (mouse splenocytes; 1 nM ligand, Fig. 4a) was 16,907 ± 3,679, the IL-4 production (mouse splenocytes; 1 nM ligand, Fig. 4b) was 247 ± 19 and the IFN-γ production (mouse splenocytes; 1 nM ligand, Fig. S2a) was 9,152 ± 373. For the same molecule, the IL-4 production (mouse splenocytes; 1 nM ligand, Fig. S2b) was 232 ± 41, the IL-17A production (mouse splenocytes; 1 nM ligand, Fig. S2c) was 1,276 ± 60 and the “Relative ratio IL-4/IFN-γ” value (mouse splenocytes) was 1.27 ± 0.23. The “Relative ratio IL-17A/IFN-γ” value (mouse splenocytes) was 0.76 ± 0.06, the “cytokine polarization in words” value (mouse splenocytes) was “relatively less selective cytokine responses” and the “metabolic stability in words” value [3] was “good metabolic stability”. It also gave a half-life [3] of 60 min.
With CCCCCCCCCCCCCC[C@@H](O)[C@@H](O)[C@H](CO[C@H]1O[C@H](CO)[C@H](O)[C@H](O)[C@H]1O)NC(=O)CCCCCCCCCCCNC(=O)NCCCCCCCCCCC [5a] the “IL-2 production (exact values of IL-2)” value (mCD1d-Fc fusion protein [1]) was 85 ± 26.
With CCCCCCCCCCCCCC[C@@H](O)[C@@H](O)[C@H](CO[C@H]1O[C@H](CO)[C@H](O)[C@H](O)[C@H]1O)NC(=O)CCCCCCCCCCCNCCCCCCC [6b] the “IL-2 production (exact values of IL-2)” value (mCD1d-Fc fusion protein [1]) was 74 ± 26, the “Relative ratio IL-4/IFN-γ” value (mouse splenocytes) was 18.3 ± 6.8 and the “Relative ratio IL-17A/IFN-γ” value (mouse splenocytes) was 66.7 ± 27.4. The IL-4 production (mouse splenocytes; 10 nM ligand, Fig. 4e) was 513 ± 11, the IL-17A production (mouse splenocytes; 10 nM ligand, Fig. 4f) was 990 ± 101 and the IFN-γ production (mouse splenocytes; 10 nM ligand, Fig. 4d) was 3,764 ± 450. For the same molecule, the “cytokine polarization in words” value (mouse splenocytes) was “IL-4- and IL-17A-biasing properties”.
For CCCCCC/C=C/CCCCCCCCCCCC(=O)N[C@@H](CO[C@H]1O[C@H](CO)[C@H](O)[C@H](O)[C@H]1O)[C@H](O)[C@H](O)CCCCCCCCCCCCCC [8b], the IL-2 production (mCD1d-Fc fusion protein [1]) was 334 ± 19.
In the case of CCCCCCCCCCCCCC[C@@H](O)[C@@H](O)[C@H](CO[C@H]1O[C@H](CO)[C@H](O)[C@H](O)[C@H]1O)NC(=O)CCCCCCCCCCCN(C)C(=O)CCCCCC [4b], the “IL-2 production (exact values of IL-2)” value (mCD1d-Fc fusion protein [1]) is reported as 546 ± 87, the IL-4 production (mouse splenocytes; 10 nM ligand, Fig. 4e) is reported as 743 ± 11 and the IL-17A production (mouse splenocytes; 10 nM ligand, Fig. 4f) is reported as 2095 ± 190. The IFN-γ production (mouse splenocytes; 10 nM ligand, Fig. 4d) was 17,753 ± 542.
With CCCCCCCCCCCCCC[C@@H](O)[C@@H](O)[C@H](CO[C@H]1O[C@H](CO)[C@H](O)[C@H](O)[C@H]1O)NC(=O)CCCCCCCCCCCNC(=O)NCCCCC [5b] the “IL-2 production (exact values of IL-2)” value (mCD1d-Fc fusion protein [1]) was 376 ± 92, the IL-4 production (mouse splenocytes; 10 nM ligand, Fig. 4e) was 723 ± 73 and the IL-17A production (mouse splenocytes; 10 nM ligand, Fig. 4f) was 1774 ± 278. For the same molecule, the IFN-γ production (mouse splenocytes; 10 nM ligand, Fig. 4d) was 10,799 ± 950.
For CCCCCCCCCCCCCC[C@@H](O)[C@@H](O)[C@H](CO[C@H]1O[C@H](CO)[C@H](O)[C@H](O)[C@H]1O)NC(=O)CCCCCCCCCCCNCCCCCCCCCCCCC [6a], the “IL-2 production (exact values of IL-2)” value (mCD1d-Fc fusion protein [1]) was 323 ± 41, the “metabolic stability in words” value [2] was “good metabolic stability” and the half-life [2] was greater than 200 min. The solubility (Water solubility; [5]) was less than 5 µM, the IFN-γ production (mouse splenocytes; 1 nM ligand, Fig. 4a) was 8,515 ± 1,016 and the IL-4 production (mouse splenocytes; 1 nM ligand, Fig. 4b) was 286 ± 12. For the same molecule, the “metabolic stability in words” value [3] was “good metabolic stability” and the half-life [3] was greater than 200 min.
In the case of CCCCCCCCCCCCCC[C@@H](O)[C@@H](O)[C@H](CO[C@H]1O[C@H](CO)[C@H](O)[C@H](O)[C@H]1O)NC(=O)CCCCCCCCCCCNC(=O)CCCCCC [1b], the “IL-2 production (exact values of IL-2)” value (mCD1d-Fc fusion protein [1]) is reported as 662 ± 46, the “metabolic stability in words” value [2] is reported as “good metabolic stability” and the half-life [2] is reported as greater than 200 min. For the same molecule, the “cytokine production / agonistic activity relative to α-GalCer, in words” value (mCD1d-Fc fusion protein [4]) was “higher levels of cytokine production relative to that caused by α-GalCer”, the solubility (Water solubility; detection limit 5 μM) was 5 µM (≈ 3.95 µg/mL) and the IFN-γ production (mouse splenocytes; 1 nM ligand, Fig. S2a) was 822 ± 11. The IL-17A production (mouse splenocytes; 1 nM ligand, Fig. S2c) was 976 ± 207, the “Relative ratio IL-4/IFN-γ” value (mouse splenocytes) was 5.04 ± 0.90 and the “Relative ratio IL-17A/IFN-γ” value (mouse splenocytes) was 6.43 ± 1.27. The “cytokine polarization in words” value (mouse splenocytes) was “IL-4- and IL-17A-biasing properties”, the “metabolic stability in words” value [3] was “good metabolic stability” and the half-life [3] was greater than 200 min.
